This is an account of results in patent US20230322745A1, “FUSED TRICYCLIC DERIVATIVE AND PHARMACEUTICAL APPLICATION THEREOF” (CHIA TAI TIANQING PHARMACEUTICAL GROUP CO., LTD., priority 2020, published 2023).

The nature of series [1]: Pharmacokinetic evaluation in SD rats. Type of series: in vivo. Conditions: male, rat, plasma; for clearance / AUC / half-life: 10% aqueous HPβCD; for clearance: read-out: Clearance rate for administration by intravenous injection; for bioavailability: intra-tracheal 5 mpk vs intravenous 2 mpk, read-out: Bioavailability F for intra-tracheal administration with a nebulizer needle; for half-life: read-out: Half life T1/2 for intra-tracheal administration with a nebulizer needle (converted). Here is the method:
To test pharmacokinetics of test compounds in SD rats
SD rats (male, 200-250 g, 7-9 weeks old, Beijing Vital River Laboratory Animal Technology Co., Ltd.)
A formulation containing 10% aqueous HPβCD solution as a vehicle was administered by intravenous injection (2 mpk), and a formulation containing 10% aqueous HPβCD solution as a vehicle was administered by intra-tracheal administration (5 mpk) with a nebulizer needle. Before the animal experiment, all animals were fed normally; and all animals were given free access to water. Blood collection time points were as follows: intravenous administration group: 0.083 h, 0.25 h, 0.5 h, 1 h, 2 h, 4 h, 8 h, and 24 h; nebulizer needle administration group: 0.083 h, 0.25 h, 0.5 h, 1 h, 2 h, 4 h, 8 h, and 24 h.
Whole blood samples (0.25 mL) were collected via the jugular vein (or other suitable collection site) at prescribed time points, and all blood samples were added to labeled plastic centrifuge tubes containing a K2-EDTA anticoagulant. After blood collection, plasma was separated by centrifugation and placed in dry ice rapidly, and the samples were stored at low temperature. All samples were analyzed by LC-MS/MS with a limit of detection of 4 nM. The mean concentration of plasma was processed using a non-compartmental model of the pharmacokinetic software WinNonlin™ Version 6.3 (Pharsight, Mountain View, CA), and pharmacokinetic parameters were calculated by a linear log-trapezoidal method.

In series [2] the target is β1 receptor (cells expressing human ADRB1 gene) (Homo sapiens (Human), UniProt P08588). Nature of the series: Agonistic effect on β1 receptor by HTRF cAMP method. Type of series: cell-based. How it is done:
β1 receptor is a G protein-coupled receptor, which is mainly coupled with Gs protein, and can activate adenylate cyclase activity through the Gs protein after being activated by binding to the ligand, thereby increasing the level of intracellular cAMP. In this experiment, the agonistic activity of the compounds against the β1 receptor in vitro was assayed by the cAMP kit.
(§1) β1 cells (expressing human ADRB1 gene) from ICE Bioscience Inc. were grown under standard conditions. The cells were collected and diluted with 1× Stimulation Buffer, and 9 μL of the cell dilution was added to a white low-volume 384-well plate with 4000 cells seeded in each well. Compounds were serially diluted in DMSO in a 5-fold gradient to obtain 10 concentrations. Before testing, compounds that had been serially diluted in DMSO were subjected to 100-fold dilution with 1× Stimulation Buffer to obtain compound working solutions. The concentration of the vehicle DMSO was 0.1%. Eu-cAMP and ULight™-anti-cAMP were diluted to the working concentration with Detection buffer. 5 μL of Eu-cAMP diluent and 5 μL of ULight™-anti-cAMP diluent were sequentially added into corresponding experiment wells. After 1 h of incubation at room temperature, readings at 665 nm and 620 nm were measured under the excitation wavelength of 330 nm using a Biotek microplate reader. The activity of the compounds was obtained by plotting through Ratio (665/620) against the concentration of the compounds, fitting the curve by a nonlinear regression method using GraphPad Prism 7 software and calculating EC50.

Series [3] has as its target β2 receptor (cells expressing human ADRB2 gene) (Homo sapiens (Human), UniProt P07550). Nature of the series: Agonistic effect on β2 receptor by HTRF cAMP method. Type of series: cell-based. Here is the method:
β2 receptor is a G protein-coupled receptor, which is mainly coupled with Gs protein, and can activate adenylate cyclase activity through the Gs protein after being activated by binding to the ligand, thereby increasing the level of intracellular cAMP. In this experiment, the agonistic activity of the compounds against the β2 receptor in vitro was assayed by the cAMP kit.
as §1, with “β2” for “β1”, “ADRB2” for “ADRB1”, “1000” for “4000”
(In general: TR-FRET usually uses a lanthanide donor and a delayed reading to cut background.)

Series [4] addresses M3 receptor (Homo sapiens (Human), UniProt P20309). Kind of series: M3 receptor affinity test (3H-NMS competition). Type of series: binding. Here is the method: M3 receptor is a G protein-coupled receptor. In this experiment, the activity of test compounds against the M3 receptor in vitro was assayed by the competition of radioisotope labeled NMS and non-isotope labeled test compounds for an M3 binding site.
(§2) The experiment was performed by a radioisotope affinity assay. The M3 receptor membrane protein was prepared at 10 μg/mL by Biology Department of WuXi AppTec, and compounds were serially diluted in a 2.5-fold gradient in DMSO to obtain 10 concentrations. Radioisotope 3H-NMS was prepared at 0.2 nM in an assay buffer (10 mM HEPES, 1 mM MgCl2, pH 7.40). In formal testing, the experimental system comprising 1 of the test compound, 100 μL of M3 receptor membrane protein and 100 μL of radioisotope was shaken in a shaker at 300 RPM for 2 h at room temperature. A GF/C plate (Perkin Elmer, Cat No. 6055690) was prefoamed with 0.3% PEI, and the membrane proteins in the reaction solution were collected by filtration onto the GF/C plate. The signal values were read by a Perkin Elmer Microbeta2 instrument and the inhibition rate for each concentration point was shown as a percentage.

Series [5] addresses M2 receptor (Homo sapiens (Human), UniProt P08172). Nature of the series: M2 receptor affinity test (3H-NMS competition). Type of series: binding. Here is the method:
M2 receptor is a G protein-coupled receptor. In this experiment, the activity of test compounds against the M2 receptor in vitro was assayed by the competition of radioisotope labeled NMS and non-isotope labeled test compounds for an M2 binding site.
as §2, with “The M2 receptor membrane” for “The experiment was performed by a radioisotope affinity assay. The M3 receptor membrane”, “prepared at 100 μg/mL by” for “prepared at 10 μg/mL by”, “comprising 1 μL of the” for “comprising 1 of the”, “μL of M2 receptor membrane” for “μL of M3 receptor membrane”

Where [6] appears, read: 2 mg/kg, intravenous injection 2 mpk.
Setting [7] is: 2 mg/kg, intravenous injection 2 mpk, read-out: Concentration integration AUC for administration by intravenous injection.
Where [8] appears, read: inhaled or intranasal, 5 mg/kg, intra-tracheal 5 mpk, read-out: Concentration integration AUC for intra-tracheal administration with a nebulizer needle.
The mark [9] stands for this setting: inhaled or intranasal, 5 mg/kg, intra-tracheal 5 mpk.
The mark [10] stands for this setting: HTRF cAMP, 1 h incubation at room temperature, read-out: EC50, agonistic activity against the β2 receptor in vitro.

SMILES strings stand for the structures. Counter-ions that a name gives are not always drawn. Like-named read-outs stand apart in the source and are kept apart here.

M2 receptor, sequence (P08172 whole entry): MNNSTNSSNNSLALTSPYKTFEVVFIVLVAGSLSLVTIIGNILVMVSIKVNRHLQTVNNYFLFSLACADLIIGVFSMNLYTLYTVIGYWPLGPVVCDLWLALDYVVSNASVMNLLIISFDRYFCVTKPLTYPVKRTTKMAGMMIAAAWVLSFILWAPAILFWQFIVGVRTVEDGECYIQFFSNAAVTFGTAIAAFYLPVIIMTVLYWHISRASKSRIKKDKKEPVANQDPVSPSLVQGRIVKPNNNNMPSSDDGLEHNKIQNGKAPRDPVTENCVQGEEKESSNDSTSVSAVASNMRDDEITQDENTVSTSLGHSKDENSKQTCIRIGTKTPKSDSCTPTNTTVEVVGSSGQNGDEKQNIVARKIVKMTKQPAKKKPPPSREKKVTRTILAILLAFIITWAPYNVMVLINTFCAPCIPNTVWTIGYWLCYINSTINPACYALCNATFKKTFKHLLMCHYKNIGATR
M3 receptor, sequence (P20309 whole entry): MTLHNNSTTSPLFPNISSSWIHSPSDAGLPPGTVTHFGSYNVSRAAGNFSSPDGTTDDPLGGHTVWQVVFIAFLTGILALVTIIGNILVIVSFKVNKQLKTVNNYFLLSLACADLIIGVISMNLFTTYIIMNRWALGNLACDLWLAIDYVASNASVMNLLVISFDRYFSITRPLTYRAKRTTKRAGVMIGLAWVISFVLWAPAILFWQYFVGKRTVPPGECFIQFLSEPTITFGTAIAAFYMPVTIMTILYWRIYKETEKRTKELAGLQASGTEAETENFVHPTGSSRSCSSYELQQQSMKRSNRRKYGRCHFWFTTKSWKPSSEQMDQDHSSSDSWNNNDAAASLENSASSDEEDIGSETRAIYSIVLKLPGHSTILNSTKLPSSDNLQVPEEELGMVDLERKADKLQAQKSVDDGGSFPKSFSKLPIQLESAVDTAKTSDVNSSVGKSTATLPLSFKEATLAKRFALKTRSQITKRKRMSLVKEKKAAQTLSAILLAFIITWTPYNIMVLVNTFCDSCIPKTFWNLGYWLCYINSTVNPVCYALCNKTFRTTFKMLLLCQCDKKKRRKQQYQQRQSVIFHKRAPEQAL
β2 receptor (cells expressing human ADRB2 gene), sequence (P07550 whole entry): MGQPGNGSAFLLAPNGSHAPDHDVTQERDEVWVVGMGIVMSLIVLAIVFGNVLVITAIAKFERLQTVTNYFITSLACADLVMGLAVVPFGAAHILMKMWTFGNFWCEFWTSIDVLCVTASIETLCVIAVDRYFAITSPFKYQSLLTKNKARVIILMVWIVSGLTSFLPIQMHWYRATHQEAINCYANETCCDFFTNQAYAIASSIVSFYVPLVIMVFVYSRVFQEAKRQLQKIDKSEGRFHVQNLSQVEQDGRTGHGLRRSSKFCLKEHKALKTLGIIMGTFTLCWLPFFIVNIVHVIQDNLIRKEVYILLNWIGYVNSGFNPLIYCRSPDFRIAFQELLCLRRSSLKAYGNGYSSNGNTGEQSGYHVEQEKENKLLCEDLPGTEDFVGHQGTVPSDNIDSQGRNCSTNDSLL
β1 receptor (cells expressing human ADRB1 gene), sequence (P08588 whole entry): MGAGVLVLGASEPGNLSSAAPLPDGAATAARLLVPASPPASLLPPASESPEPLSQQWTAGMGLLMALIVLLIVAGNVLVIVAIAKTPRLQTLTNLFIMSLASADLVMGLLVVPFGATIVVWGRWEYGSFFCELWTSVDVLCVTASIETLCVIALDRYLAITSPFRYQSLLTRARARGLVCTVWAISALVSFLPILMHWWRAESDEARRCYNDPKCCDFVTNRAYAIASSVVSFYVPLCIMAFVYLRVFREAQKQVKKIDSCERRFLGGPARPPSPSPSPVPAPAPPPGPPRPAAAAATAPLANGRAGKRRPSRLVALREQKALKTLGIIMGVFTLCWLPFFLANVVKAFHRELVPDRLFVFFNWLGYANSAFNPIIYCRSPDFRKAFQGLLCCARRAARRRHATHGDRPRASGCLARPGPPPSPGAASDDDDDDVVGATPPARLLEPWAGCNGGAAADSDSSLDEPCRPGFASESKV

Turning to `CN(CCCn1nnc2cc(CNC[C@H](O)c3ccc(O)c4[nH]c(=O)ccc34)ccc21)[C@H]1CC[C@H](OC(=O)C(O)(c2cccs2)c2cccs2)CC1` [Hydrofluoride salt of AZD8871, reference compound], the clearance in series [1] (setting [6]) was found to be 35 mL/min/kg. Further, the figures for the AUC in series [1] (setting [7]) and in series [1] (setting [8]) were 1.27 µM·h and 2.44 µM·h, respectively. The bioavailability in series [1] (inhaled or intranasal, 5 mg/kg) turned out to be 76.7%. Besides, the half-life in series [1] (setting [9]) was 30.9 min.

With `CN(CCCn1nnc2cc(CNC[C@H](O)c3ccc(O)c4[nH]c(=O)ccc34)c3c(c21)CCC3)[C@H]1CC[C@H](OC(=O)C(O)(c2cccs2)c2cccs2)CC1` [Trifluoroacetate salt of compound 1], the figures for the EC50 in series [2] and in series [3] (setting [10]) were 84.5 nM and 3.47 nM, respectively. For the same compound, the IC50 (as a rule, the concentration needed to halve the response being measured) was determined as 0.384 nM in series [4] (read-out: IC50, activity against the M3 receptor in vitro) and 0.062 nM in series [5]. Further, the clearance in series [1] (setting [6]) was 62.8 mL/min/kg. In addition, the values for the AUC in series [1] (setting [7]) and in series [1] (setting [8]) were 0.681 µM·h and 2.61 µM·h, respectively. For the same compound, in series [1] (inhaled or intranasal, 5 mg/kg), the bioavailability amounted to 153%. In addition, the half-life in series [1] (setting [9]) was 82.8 min.

For the compound `CN(CCCn1nnc2cc(CNC[C@H](O)c3ccc(O)c4[nH]c(=O)ccc34)c3c(c21)OCO3)[C@H]1CC[C@H](OC(=O)C(O)(c2cccs2)c2cccs2)CC1` [Formate salt of compound 33], the EC50 (usually the midpoint of the concentration-response curve) in series [2] turned out to be 53.1 nM; in series [3] it was 0.742 nM. Further, the IC50 in series [4] was determined as 0.494 nM; in series [5], 0.153 nM.

As for `Cc1ccc(C(O)(C(=O)C[C@H]2CC[C@H](N(C)CCCn3nnc4cc(CNC[C@H](O)c5ccc(O)c6[nH]c(=O)ccc56)c5c(c43)CCC5)CC2)c2ccc(C)s2)s1` [Formate salt of compound 32], the EC50 in series [2] (HTRF cAMP, 1 h incubation at room temperature, read-out: EC50, agonistic activity against the β1 receptor in vitro) worked out at 145 nM; in series [3] (setting [10]), 1.57 nM. Also, the IC50 was determined as 1.2 nM in series [4] (0.2 nM 3H-NMS, M3 receptor membrane protein, 2 h at room temperature, read-out: IC50, activity against the M3 receptor in vitro) and 0.814 nM in series [5] (0.2 nM 3H-NMS, M2 receptor membrane protein, 2 h at room temperature, read-out: IC50, activity against the M2 receptor in vitro).

In the case of `CN(CCCn1cnc2cc(CNC[C@H](O)c3ccc(O)c4[nH]c(=O)ccc34)c3c(c21)CCC3)[C@H]1CC[C@H](OC(=O)C(O)(c2cccs2)c2cccs2)CC1` [Formate salt of compound 41], the values for the EC50 in series [2] and in series [3] were 229 nM and 13.8 nM, respectively. For the same compound, the IC50 in series [4] was 0.201 nM; in series [5], 0.268 nM.

Regarding `CN(CCCn1nnc2cc(CNC[C@H](O)c3ccc(O)c4[nH]c(=O)ccc34)c3c(c21)COC3)[C@H]1CC[C@H](OC(=O)C(O)(c2cccs2)c2cccs2)CC1` [Formate salt of compound 40], the EC50 worked out at 56.7 nM in series [2] and 2.8 nM in series [3]. Moreover, the figures for the IC50 in series [4] and in series [5] were 0.363 nM and 0.228 nM, respectively.
